Laboratory results taken from US20210283261A1, “Compositions and Methods for Treating ALK-Mediated Cancer” (ICAHN SCHOOL OF MEDICINE AT MOUNT SINAI, priority 2017, published 2021).

What follows are compounds tested against T1, NPM-ALK fusion protein (Homo sapiens, UniProt Q9UM73) (assay: Western blot of NPM-ALK fusion protein levels in SU-DHL-1 cells). Details: SU-DHL-1 cells, 30 nM, Western blot; read-out: ALK fusion protein degradation, SU-DHL-1 (30 nM).
T1 construct: endogenous in cells; host or cells: SU-DHL-1; the other entry of the earlier key: NPM1 (P06748, Nucleophosmin)
T1 sequence (Q9UM73 with tags, fused parts or gaps): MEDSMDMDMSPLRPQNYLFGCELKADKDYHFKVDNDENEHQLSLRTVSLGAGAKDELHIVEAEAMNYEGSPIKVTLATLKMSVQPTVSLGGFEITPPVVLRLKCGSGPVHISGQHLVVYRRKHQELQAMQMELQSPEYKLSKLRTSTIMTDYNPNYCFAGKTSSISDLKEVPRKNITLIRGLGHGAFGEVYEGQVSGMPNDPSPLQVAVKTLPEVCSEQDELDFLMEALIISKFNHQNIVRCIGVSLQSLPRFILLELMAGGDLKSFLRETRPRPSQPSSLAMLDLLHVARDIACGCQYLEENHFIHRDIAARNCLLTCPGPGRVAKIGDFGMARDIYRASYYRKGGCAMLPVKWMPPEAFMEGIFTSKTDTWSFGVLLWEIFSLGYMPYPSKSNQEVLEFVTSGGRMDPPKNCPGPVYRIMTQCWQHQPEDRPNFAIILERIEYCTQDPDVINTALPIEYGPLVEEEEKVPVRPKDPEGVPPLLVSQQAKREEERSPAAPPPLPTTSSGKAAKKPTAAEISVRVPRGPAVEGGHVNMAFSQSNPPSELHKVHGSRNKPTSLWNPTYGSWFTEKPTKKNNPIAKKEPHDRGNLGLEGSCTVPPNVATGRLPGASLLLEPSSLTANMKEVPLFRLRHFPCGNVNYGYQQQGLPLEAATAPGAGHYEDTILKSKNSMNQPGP
Assay type: cell-based
Protocol: Cells were cultured in a 37° C. incubator with 5% CO2.
Cells were washed with cold PBS once and lysed in 1× Laemmli loading buffer directly. […] Membrane was blocked in 5% milk in Tris-buffered saline and Tween 20 (TBST) for 1 h at room temperature, followed by incubation with a primary antibody overnight at 4° C., and a horseradish peroxidase (HRP)-conjugated secondary antibody for 1 h at room temperature. The membrane was imaged by a ChemiDoc MP imaging system (BIO-RAD). Antibodies against GAPDH (abeam), Phospho-ALK (Tyr1507), ALK (Cell Signaling Technology), Tubulin (Santa Cruz) were purchased commercially.
SU-DHL-1 suspension cells were seeded in 12-well plates at a density of 6×10^5/mL and treated with DMSO or indicated compounds at 30 nM or 100 nM for indicated time.
SU-DHL-1 cells were seeded in 12-well plates at a density of 4×10^5/mL and treated with DMSO or indicated serial dilutions of compounds for 16 h. The NPM-ALK fusion protein levels were determined by Western blot and normalized against GPADH (right panel).
Cc1cc(Nc2ncc(Cl)c(Nc3ccccc3S(=O)(=O)C(C)C)n2)c(OC(C)C)cc1C1CCN(CC(=O)NCCOCCOCCNc2cccc3c2C(=O)N(C2CCC(=O)NC2=O)C3=O)CC1 (stereo not drawn) [CZ40-51, 2-(4-(4-((5-Chloro-4-((2-(isopropylsulfonyl)phenyl)amino)pyrimidin-2-yl)amino)-5-isopropoxy-2-methylphenyl)piperidin-1-yl)-N-(2-(2-(2-((2-(2,6-dioxopiperidin-3-yl)-1,3-dioxoisoindolin-4-yl)amino)ethoxy)ethoxy)ethyl)acetamide] showed a Dmax at 0.03 µM greater than 80%.
Cc1cc(Nc2ncc(Cl)c(Nc3ccccc3S(=O)(=O)C(C)C)n2)c(OC(C)C)cc1C1CCN(CC(=O)NCCOCCOCCOCCNc2cccc3c2C(=O)N(C2CCC(=O)NC2=O)C3=O)CC1 (stereo not drawn) [CZ40-52, 2-(4-(4-((5-Chloro-4-((2-(isopropylsulfonyl)phenyl)amino)pyrimidin-2-yl)amino)-5-isopropoxy-2-methylphenyl)piperidin-1-yl)-N-(2-(2-(2-(2-((2-(2,6-dioxopiperidin-3-yl)-1,3-dioxoisoindolin-4-yl)amino)ethoxy)ethoxy)ethoxy)ethyl)acetamide] gave a Dmax at 0.03 µM greater than 80%.
In the case of Cc1cc(Nc2ncc(Cl)c(Nc3ccccc3S(=O)(=O)C(C)C)n2)c(OC(C)C)cc1C1CCN(CC(=O)NCCCNc2cccc3c2C(=O)N(C2CCC(=O)NC2=O)C3=O)CC1 (stereo not drawn) [CZ40-79, 2-(4-(4-((5-Chloro-4-((2-(isopropylsulfonyl)phenyl)amino)pyrimidin-2-yl)amino)-5-isopropoxy-2-methylphenyl)piperidin-1-yl)-N-(3-((2-(2,6-dioxopiperidin-3-yl)-1,3-dioxoisoindolin-4-yl)amino)propyl)acetamide], the Dmax at 0.03 µM is reported as greater than 80%.
Work on Cc1cc(Nc2ncc(Cl)c(Nc3ccccc3S(=O)(=O)C(C)C)n2)c(OC(C)C)cc1C1CCN(CC(=O)NCCCCNc2cccc3c2C(=O)N(C2CCC(=O)NC2=O)C3=O)CC1 (stereo not drawn) [CZ40-80, 2-(4-(4-((5-Chloro-4-((2-(isopropylsulfonyl)phenyl)amino)pyrimidin-2-yl)amino)-5-isopropoxy-2-methylphenyl)piperidin-1-yl)-N-(4-((2-(2,6-dioxopiperidin-3-yl)-1,3-dioxoisoindolin-4-yl)amino)butyl)acetamide] yielded a Dmax at 0.03 µM of 20 to 80%.
Work on Cc1cc(Nc2ncc(Cl)c(Nc3ccccc3S(=O)(=O)C(C)C)n2)c(OC(C)C)cc1C1CCN(CC(=O)NCCCCCNc2cccc3c2C(=O)N(C2CCC(=O)NC2=O)C3=O)CC1 (stereo not drawn) [CZ40-81, 2-(4-(4-((5-Chloro-4-((2-(isopropylsulfonyl)phenyl)amino)pyrimidin-2-yl)amino)-5-isopropoxy-2-methylphenyl)piperidin-1-yl)-N-(5-((2-(2,6-dioxopiperidin-3-yl)-1,3-dioxoisoindolin-4-yl)amino)pentyl)acetamide] yielded a Dmax at 0.03 µM greater than 80%.
In the case of Cc1cc(Nc2ncc(Cl)c(Nc3ccccc3S(=O)(=O)C(C)C)n2)c(OC(C)C)cc1C1CCN(CC(=O)NCCCCCCNc2cccc3c2C(=O)N(C2CCC(=O)NC2=O)C3=O)CC1 (stereo not drawn) [CZ40-82, 2-(4-(4-((5-Chloro-4-((2-(isopropylsulfonyl)phenyl)amino)pyrimidin-2-yl)amino)-5-isopropoxy-2-methylphenyl)piperidin-1-yl)-N-(6-((2-(2,6-dioxopiperidin-3-yl)-1,3-dioxoisoindolin-4-yl)amino)hexyl)acetamide], the Dmax at 0.03 µM is reported as greater than 80%.
Cc1cc(Nc2ncc(Cl)c(Nc3ccccc3S(=O)(=O)C(C)C)n2)c(OC(C)C)cc1C1CCN(CC(=O)NCCCCCCCNc2cccc3c2C(=O)N(C2CCC(=O)NC2=O)C3=O)CC1 (stereo not drawn) [CZ40-83, 2-(4-(4-((5-Chloro-4-((2-(isopropylsulfonyl)phenyl)amino)pyrimidin-2-yl)amino)-5-isopropoxy-2-methylphenyl)piperidin-1-yl)-N-(7-((2-(2,6-dioxopiperidin-3-yl)-1,3-dioxoisoindolin-4-yl)amino)heptyl)acetamide] was tested, and the Dmax at 0.03 µM was greater than 80%.
Cc1cc(Nc2ncc(Cl)c(Nc3ccccc3S(=O)(=O)C(C)C)n2)c(OC(C)C)cc1C1CCN(CC(=O)NCCCCCCCCNc2cccc3c2C(=O)N(C2CCC(=O)NC2=O)C3=O)CC1 (stereo not drawn) [CZ40-84, 2-(4-(4-((5-Chloro-4-((2-(isopropylsulfonyl)phenyl)amino)pyrimidin-2-yl)amino)-5-isopropoxy-2-methylphenyl)piperidin-1-yl)-N-(8-((2-(2,6-dioxopiperidin-3-yl)-1,3-dioxoisoindolin-4-yl)amino)octyl)acetamide] was tested, and the Dmax at 0.03 µM was 20 to 80%.
Cc1cc(Nc2ncc(Cl)c(Nc3ccccc3S(=O)(=O)C(C)C)n2)c(OC(C)C)cc1C1CCN(CC(=O)NCCOCC(=O)N[C@H](C(=O)N2C[C@H](O)C[C@H]2C(=O)NCc2ccc(-c3scnc3C)cc2)C(C)(C)C)CC1 [CZ40-85, (2S,4R)-1-((S)-2-(2-(2-(2-(4-(4-((5-Chloro-4-((2-(isopropylsulfonyl)phenyl)amino)pyrimidin-2-yl)amino)-5-isopropoxy-2-methylphenyl)piperidin-1-yl)acetamido)ethoxy)acetamido)-3,3-dimethylbutanoyl)-4-hydroxy-N-(4-(4-methylthiazol-5-yl)benzyl)pyrrolidine-2-carboxamide] was tested, and the Dmax at 0.03 µM was less than 20%.
With Cc1cc(Nc2ncc(Cl)c(Nc3ccccc3S(=O)(=O)C(C)C)n2)c(OC(C)C)cc1C1CCN(CC(=O)NCCOCCOCC(=O)N[C@H](C(=O)N2C[C@H](O)C[C@H]2C(=O)NCc2ccc(-c3scnc3C)cc2)C(C)(C)C)CC1 [CZ40-86, (2S,4R)-1-((S)-2-(tert-Butyl)-14-(4-(4-((5-chloro-4-((2-(isopropylsulfonyl)phenyl)amino)pyrimidin-2-yl)amino)-5-isopropoxy-2-methylphenyl)piperidin-1-yl)-4,13-dioxo-6,9-dioxa-3,12-diazatetradecanoyl)-4-hydroxy-N-(4-(4-methylthiazol-5-yl)benzyl)pyrrolidine-2-carboxamide] the Dmax at 0.03 µM was less than 20%.

The compounds below were run against T2, ALK fusion protein (Homo sapiens, UniProt Q9UM73) (assay: Western blot of ALK fusion protein levels in NCI-H3122 cells). Details: NCI-H3122, NCI-H3122 cells, 500 nM, Western blot; read-out: ALK fusion protein degradation, NCI-H3122 (500 nM).
T2 construct: endogenous in cells; host or cells: NCI-H3122; the other entry of the earlier key: EML4 (Q9HC35, Echinoderm microtubule-associated protein-like 4)
T2 sequence (Q9UM73 with tags, fused parts or gaps): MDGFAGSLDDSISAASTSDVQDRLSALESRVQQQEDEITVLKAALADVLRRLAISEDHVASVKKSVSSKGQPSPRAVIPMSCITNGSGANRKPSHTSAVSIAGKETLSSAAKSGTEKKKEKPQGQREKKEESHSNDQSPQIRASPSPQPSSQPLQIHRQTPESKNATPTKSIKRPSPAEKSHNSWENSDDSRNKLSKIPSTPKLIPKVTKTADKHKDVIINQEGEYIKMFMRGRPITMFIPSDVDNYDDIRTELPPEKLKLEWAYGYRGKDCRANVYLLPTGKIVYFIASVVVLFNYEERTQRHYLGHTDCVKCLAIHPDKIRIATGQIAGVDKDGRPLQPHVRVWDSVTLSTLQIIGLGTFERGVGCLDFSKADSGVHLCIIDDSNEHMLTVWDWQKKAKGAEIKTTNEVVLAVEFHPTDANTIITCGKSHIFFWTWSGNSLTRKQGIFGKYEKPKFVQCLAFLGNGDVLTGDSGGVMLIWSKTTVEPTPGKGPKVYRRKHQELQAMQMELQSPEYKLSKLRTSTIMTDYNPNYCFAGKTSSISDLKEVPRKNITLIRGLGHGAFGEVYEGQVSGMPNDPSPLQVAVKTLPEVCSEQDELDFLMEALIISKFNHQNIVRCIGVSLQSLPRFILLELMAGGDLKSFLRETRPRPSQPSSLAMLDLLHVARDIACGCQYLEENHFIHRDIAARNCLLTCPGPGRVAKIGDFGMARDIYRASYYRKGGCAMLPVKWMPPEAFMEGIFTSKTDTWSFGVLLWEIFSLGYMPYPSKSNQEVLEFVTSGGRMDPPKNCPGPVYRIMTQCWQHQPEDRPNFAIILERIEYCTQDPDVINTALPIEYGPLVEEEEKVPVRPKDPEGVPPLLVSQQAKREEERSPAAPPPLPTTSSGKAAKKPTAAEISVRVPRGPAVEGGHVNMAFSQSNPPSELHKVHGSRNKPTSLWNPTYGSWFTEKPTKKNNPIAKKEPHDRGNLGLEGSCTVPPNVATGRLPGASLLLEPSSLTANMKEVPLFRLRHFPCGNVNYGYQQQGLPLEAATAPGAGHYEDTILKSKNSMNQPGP
Assay type: cell-based
Protocol: SU-DHL-1, NCI-H3122 and NCI-H2228 cells were cultured in RPMI-1640 medium supplemented with 10% fetal bovine serum, 50 μg/mL penicillin and streptomycin. Cells were cultured in a 37° C. incubator with 5% CO2.
Cells were washed with cold PBS once and lysed in 1× Laemmli loading buffer directly. Lysates were heated at 99° C. for […], and resolved on 4-15% precast SDS-PAGE (BIO-RAD) and transferred onto PVDF membrane. Membrane was blocked in 5% milk in Tris-buffered saline and Tween 20 (TBST) for 1 h at room temperature, followed by incubation with a primary antibody overnight at 4° C., and a horseradish peroxidase (HRP)-conjugated secondary antibody for 1 h at room temperature. The membrane was imaged by a ChemiDoc MP imaging system (BIO-RAD). Antibodies against GAPDH (abeam), Phospho-ALK (Tyr1507), ALK (Cell Signaling Technology), Tubulin (Santa Cruz) were purchased commercially. […]
Cc1cc(Nc2ncc(Cl)c(Nc3ccccc3S(=O)(=O)C(C)C)n2)c(OC(C)C)cc1C1CCN(C(=O)CCCCCCCCC(=O)N[C@H](C(=O)N2C[C@H](O)C[C@H]2C(=O)NCc2ccc(-c3scnc3C)cc2)C(C)(C)C)CC1 [CZ47-28, (2S,4R)-1-((S)-2-(10-(4-(4-((5-Chloro-4-((2-(isopropylsulfonyl)phenyl)amino)pyrimidin-2-yl)amino)-5-isopropoxy-2-methylphenyl)piperidin-1-yl)-10-oxodecanamido)-3,3-dimethylbutanoyl)-4-hydroxy-N-(4-(4-methylthiazol-5-yl)benzyl)pyrrolidine-2-carboxamide] was tested, and the Dmax at 0.5 µM was less than 20%.
Cc1cc(Nc2ncc(Cl)c(Nc3ccccc3S(=O)(=O)C(C)C)n2)c(OC(C)C)cc1C1CCN(C(=O)CCCCCCCCCC(=O)N[C@H](C(=O)N2C[C@H](O)C[C@H]2C(=O)NCc2ccc(-c3scnc3C)cc2)C(C)(C)C)CC1 [CZ47-29, (2S,4R)-1-((S)-2-(ll-(4-(4-((5-Chloro-4-((2-(isopropylsulfonyl)phenyl)amino)pyrimidin-2-yl)amino)-5-isopropoxy-2-methylphenyl)piperidin-1-yl)-11-oxoundecanamido)-3,3-dimethylbutanoyl)-4-hydroxy-N-(4-(4-methylthiazol-5-yl)benzyl)pyrrolidine-2-carboxamide] was tested, and the Dmax at 0.5 µM was less than 20%.
